Measured values published in US10774080B2, “Pyrimidine compound as JAK kinase inhibitor” (THERAVANCE BIOPHARMA R&D IP, LLC, priority 2017, dated 2020).

What was measured:
CXCL10 gene expression = test: Assay 7: ex vivo JAK PD assay, freshly excised human skin, CXCL10; conditions: 0.5% ointment, about 40 hours continuous exposure, Th1-skewed stimulation (TNFα, IFNγ, IL-12), vs vehicle
Description: Assay 7: Ex Vivo JAK Pharmacodynamic (PD) Assay Using Human Freshly Excised Skin An ex vivo JAK pharmacodynamics (PD) assay was conducted using human isolated skin tissue. The PD assay used fresh human skin (dermatome of 750 μm thickness) that was mounted in static Franz cells with a surface area of ˜0.5 cm^2. The receiver chambers of the Franz cells were filled with warm (37° C.) cornification media and placed in an incubator at 37° C. The skin was topically dosed with 10 μL ([…]) of compound (I) or vehicle and was left undisturbed overnight (˜24 hours). The next day, with no re-application of the test compound or vehicle, the media was replaced with a Th1-skewed stimulation cocktail consisting of TNFα, IFNγ and IL-12. The skin was left undisturbed for an additional 16 hours, and then harvested and processed for RNA extraction and qPCR of biomarkers: CXCL10, CCL2. GAPDH was used as an internal standard. The compound (I) was formulated in an ointment formulation at 0.5% strength. A total of three skin donors (tested in quadruplicates/sample/treatment) were used. Treatment effect was calculated as the percent increase or decrease in stimulation compared to the vehicle group. [table]

Tyk2 = target: T1, Tyk2 (Homo sapiens, UniProt P29597); test: Biochemical Tyk2 kinase assay (LanthaScreen); conditions: read-out: Tyk 2 (pKi) (converted)
T1 construct: GST; purchased Life Technologies
T1 sequence (P29597 whole entry): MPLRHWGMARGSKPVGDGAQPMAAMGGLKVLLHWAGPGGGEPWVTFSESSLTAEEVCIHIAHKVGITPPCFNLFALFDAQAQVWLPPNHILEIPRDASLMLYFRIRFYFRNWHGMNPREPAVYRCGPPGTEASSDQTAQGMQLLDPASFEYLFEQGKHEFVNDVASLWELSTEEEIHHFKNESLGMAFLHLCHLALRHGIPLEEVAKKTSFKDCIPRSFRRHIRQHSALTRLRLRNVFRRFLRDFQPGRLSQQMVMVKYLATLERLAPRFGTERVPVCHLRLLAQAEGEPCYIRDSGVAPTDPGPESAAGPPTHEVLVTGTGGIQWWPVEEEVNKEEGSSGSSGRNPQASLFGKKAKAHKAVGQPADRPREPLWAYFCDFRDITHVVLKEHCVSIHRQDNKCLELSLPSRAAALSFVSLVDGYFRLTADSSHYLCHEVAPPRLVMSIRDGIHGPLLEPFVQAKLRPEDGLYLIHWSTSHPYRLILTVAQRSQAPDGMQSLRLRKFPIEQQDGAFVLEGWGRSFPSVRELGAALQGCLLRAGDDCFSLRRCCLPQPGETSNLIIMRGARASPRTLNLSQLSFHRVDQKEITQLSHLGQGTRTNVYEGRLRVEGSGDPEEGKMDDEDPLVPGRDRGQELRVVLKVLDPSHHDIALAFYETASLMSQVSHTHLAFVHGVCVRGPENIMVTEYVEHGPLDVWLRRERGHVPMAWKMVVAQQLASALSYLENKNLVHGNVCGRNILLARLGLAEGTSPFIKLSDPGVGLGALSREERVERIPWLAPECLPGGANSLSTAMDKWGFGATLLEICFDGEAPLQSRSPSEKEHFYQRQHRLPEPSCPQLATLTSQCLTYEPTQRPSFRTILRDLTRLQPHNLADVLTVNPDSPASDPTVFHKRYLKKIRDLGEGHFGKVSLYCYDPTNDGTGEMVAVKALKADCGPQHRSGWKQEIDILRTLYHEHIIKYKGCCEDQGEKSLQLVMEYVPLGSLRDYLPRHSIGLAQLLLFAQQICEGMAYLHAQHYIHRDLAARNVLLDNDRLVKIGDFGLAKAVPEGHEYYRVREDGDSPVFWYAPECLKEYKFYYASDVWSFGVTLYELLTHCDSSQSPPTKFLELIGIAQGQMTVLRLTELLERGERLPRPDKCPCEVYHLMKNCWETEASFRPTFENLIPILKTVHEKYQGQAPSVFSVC
Description: Assay 1: Biochemical JAK and Tyk2 Kinase Assays A panel of four LanthaScreen JAK biochemical assays (JAK1, 2, 3 and Tyk2) were carried in a common kinase reaction buffer (50 mM HEPES, pH 7.5, 0.01% Brij-35, 10 mM MgCl2, and 1 mM EGTA). Recombinant GST-tagged JAK enzymes and a GFP-tagged STAT1 peptide substrate were obtained from Life Technologies. Serially or discretely diluted compounds were pre-incubated with each of the four JAK enzymes and the substrate in white 384-well microplates (Corning) at ambient temperature for 1 h. ATP was subsequently added to initiate the kinase reactions in 10 μL total volume, with 1% DMSO. […] The plates were allowed to incubate at ambient temperature for 1 h before being read on the EnVision reader (Perkin Elmer). Emission ratio signals (520 nm/495 nm) were recorded and utilized to calculate the percent inhibition values based on DMSO and background controls. For dose-response analysis, percent inhibition data were plotted vs. compound concentrations, and IC50 values were determined from a 4-parameter robust fit model with the Prism software (GraphPad Software). Results were expressed as pIC50 (negative logarithm of IC50) and subsequently converted to pKi (negative logarithm of dissociation constant, Ki) using the Cheng-Prusoff equation.

[1] = test system: IL-13 stimulated STAT6 phosphorylation in normal human epidermal keratinocytes; test: Assay 13: inhibition of IL-13 stimulated pSTAT6 in normal human epidermal keratinocytes; type: cell-based; conditions: Keratinocyte, read-out: pIC50 for inhibition of IL-13 induced STAT6 phosphorylation (converted)
Description: Assay 13: Inhibition of IL-13 Stimulated pSTAT6 in Normal Human Epidermal Keratinocytes
The potency of test compounds for inhibition of interleukin-13 (IL-13) stimulated STAT6 phosphorylation was measured in the normal human epidermal keratinocytes (ATCC) using AlphaLisa. Phosphorylated STAT6 was measured via the AlphaLISA SureFire Ultra pSTAT6 (Tyr641) kit (PerkinElmer).
Primary epidermal keratinocytes were cultured in a 37° C., 5% CO2 humidified incubator in dermal cell basal medium (ATCC) supplemented with keratinocyte growth kit (ATCC) and 1× Pen/Strep (Life Technologies). […]
After cytokine stimulation, cells were lysed with 5 ul of 5× AlphaLisa Lysis Buffer (PerkinElmer) containing 1× PhosStop and Complete tablets (Roche). […] Phosphorylated STAT6 was measured via the pSTAT6 AlphaLisa kit (PerkinElmer). […] Luminescence was measured with excitation at 689 nm and emission at […] using an EnVision plate reader (PerkinElmer) under green filtered <100 lux light.
Luminescence signals were recorded and utilized to calculate the percent inhibition values based on DMSO and controls. For dose-response analysis, percent inhibition data were plotted vs. compound concentrations, and IC50 values were determined from a 4-parameter robust fit model with the Prism software.

[2] = test system: IL-31-induced production of pSTAT3 in mouse skin; test: Assay 9: in vivo IL-31-pSTAT3 JAK target engagement in mice; set-up: species or system Balb/c mice; conditions: topical ointment 25 μl/cm^2, 30 minutes before intradermal IL-31, biopsy one hour after IL-31
Source text: Assay 9: In Vivo IL-31-pSTAT3 JAK Target Engagement Assay in Mice
An in vivo model of IL-31-induced production of phosphorylated signal transducer and activator of transcription 3 (pSTAT3) in mice was used to assess local target engagement on mouse skin.
(§1) The JAK/STAT (janus kinase/signal transducer and activator of transcription) signaling pathway is a key element in the communication between immune cells and is mainly activated through cytokine receptors. Binding of cytokine IL-31 leads to the activation and phosphorylation of JAK1/JAK2 tyrosine kinases which in turn leads to the phosphorylation of STAT3 (pSTAT3). The activated STAT then translocates into the nucleus and directly regulates the transcription of cytokine-sensitive genes. In these studies, Balb/c mice were dosed with an ointment formulation of compound (I). Ointment vehicle (Table 9) or compound (I) formulated in the ointment vehicle was applied topically to shaved skin (25 μl/cm^2) 30 minutes before the intradermal injection (50 μl/1×1 cm2 site) of IL-31 (1 μg/ml) at a 1×1 cm^2 shaved area of skin on the back between the ears. One hour after IL-31, skin biopsies were collected. The tissue samples were flash frozen and analyzed for pSTAT3 by ELISA and compound concentration. Compound (I) inhibited pSTAT3 production by 80% and the skin tissue concentration of compound (I) was 62 μM.

[3] = Assay 9: skin tissue concentration in mice; type: in vivo; conditions: Balb/c, mouse, topical ointment 25 μl/cm^2, biopsy one hour after IL-31
Source text: as §1

Which “PD-% Inhibition (mean ± SD) CXCL10” value (CXCL10 gene expression) does the source give for `CCS(=O)(=O)N1[C@@H]2CCC[C@H]1C[C@H](N(C)c1nc(CO)c(F)c(Nc3cc(C)[nH]n3)n1)C2` [Compound (I), (2-(((1R,3s,5S)-9-(ethylsulfonyl)-9-azabicyclo[3.3.1]nonan-3-yl)(methyl)amino)-5-fluoro-6-((5-methyl-1H-pyrazol-3-yl)amino)pyrimidin-4-yl)methanol] here?
The value was 90.1%.

What about the Ki (Tyk2) of the same molecule?
Its Ki is 0.126 nM.

What about the IC50 [1] of the same molecule?
Its IC50 is 5.01 nM.

What about the “inhibition of IL-31-induced pSTAT3 production” value [2] of the same molecule?
Its value is 80%.

And the concentration at 1.5 h [3]?
The concentration at 1.5 h was 62 µM.
